≈ marks a conversion by molar mass, not a printed value. Where two headings read alike, the source gives them in different places.
Columns and labels:
MRSA PK = target: T1, MRSA PK (Staphylococcus aureus, UniProt Q6GG09); assay: MRSA PK activity, continuous LDH-coupled assay; format: biochemical, S. aureus (MRSA strain Sanger 252)
T1 construct: His tag (pET-28a(+) vector) (N); made in house; host or cells: E. coli BL-21 (DE3)
From the text: Genomic DNA of MRSA strain Sanger 252 extracted using DNeasy Tissue Kit™ (Qiagen™) was used as a template to generate the His-tagged MRSA PK. Human cDNA from MCF-7 breast cancer cell line (courtesy of Dr. J Wong, BC Cancer Research Center (Vancouver, Canada) was used as a template to generate the full-length human M2 PK enzyme. The following primer sets were used creating appropriate restriction sites (NdeI and XhoI sites underlined): For cloning of MRSA PK: M27F 5′-[…]-3′ and M27R 5′-[…]-3′, for cloning of human M2 PK isoform: hM2F 5′-[…]-3′ and hM2R 5′-[…]-3′. The resulting PCR fragments for each construct were cloned into the NdeI and XhoI unique sites of the bacterial expression vector pET-28a (+) (Novagen™). […] The sequence and the correct reading frame of all constructs were verified by sequencing. Human M1, R and L PK constructs in pET-28-a(+) vectors (courtesy of Dr. L. Cantley, Harvard Medical, School (Boston, USA)) were used to generate relevant recombinant His-tagged human PK isoforms.
MRSA and human constructs in pET-28a(+) were used to express relevant recombinant PK proteins in E. coli BL-21 (DE3). The proteins were expressed and purified using Ni-NTA agarose (Qiagen™) according to the manufacturer's protocol. Briefly, cells were grown to an absorbance of 0.4-0.5 at 600 nm in 2×YT medium, then induced with 0.1 mM IPTG for 3 h at 20° C. Cells were lysed by sonication on ice (3×10-s bursts with a 30-s recovery between bursts) in lysis buffer (0.2 mg/ml lysozyme, 50 mM Tris pH 7.5, 10 mM MgCl2, 200 mM NaCl, 100 mM KCl, 10% glycerol, 10 mM imidazole, 0.5% NP-40 and 1 mM DTT containing Complete™ protease inhibitor). Cell lysates were cleared by centrifugation (18,000×g in a Beckman™ JA-20 rotor) for 20 min at 4° C. and PK isoforms were purified by batch binding to Ni-NTA resin. The resins were then packed in columns (1×2 cm) and washed with 400 column volumes lysis buffer containing 30 mM imidazole. His-tagged PK isoforms were eluted with the same buffer containing 300 mM imidazole. The proteins were dialyzed overnight at 4° C. against 2000 volumes of ice-cold 30 mM Tris pH 7.5, 25 mM KCl, 5 mM MgCl2, 10% glycerol and 1 mM DTT to remove imidazole. All purification steps were done at 4° C.; enzymes were flash-frozen and stored at −70° C. […] Purity and physical integrity of proteins were assessed using SDS-polyacrylamide gel electrophoresis (SDS-PAGE) followed by coomassie blue staining. Protein concentration was estimated by Bradford assay (Bio-Rad Protein Assay™) using bovine serum albumin as a standard.
Candidate MRSA PK inhibitors were assayed for their ability to inhibit enzymatic activities of MRSA and human PKs. PK activity was determined using a continuous assay coupled to lactate dehydrogenase (LDH) in which the change in absorbance at 340 nm owing to oxidation of NADH was measured using a Benchmark Plus™ microplate spectrophotometer (Bio-Rad Laboratories, Hercules, Calif.). […] Reactions were initiated by the addition of 15 nM of one of the PK enzymes. PK activity proportional to the rate of change at 340 nm was expressed as specific activity (μmol/min/mg), which is defined as the amount of PK that catalyzes the formation of one micromole of either product per minute. Inhibitors were dissolved in DMSO with the final concentration of the solvent never exceeding 1% of the assay volume. IC50 values were calculated by curve fitting on a four-parameter dose-response model with variable slope using Graphpad Prism 5.0™ (GraphPad™ Software Inc., La Jolla, Calif.). […] Reactions were performed at 30° C. for up to 5 min. All values determined represent at least two measurements, in triplicate (Tables 1-6) or duplicate unless mentioned otherwise.

S. aureus ATCC 29213 = assay: In vitro susceptibility, broth microdilution MIC; format: cell-based, Staphylococcus aureus
Description: The antimicrobial activities of PK inhibitor candidates were determined using the 96-well microtiter standard 2-fold serial broth microdilution method as described by CLSI (formerly NCCLS) with the various gram-positive and gram-negative bacteria species mentioned above. Bacteria from a single colony were grown, overnight in either BHI Broth (VRE), mueller hinton broth (S. aureus 29213; MRSA USA400) or L-broth (E. coli, P. aeruginosa, S. typhimuriu, K. Pneumonia and A. baumannii). […] Culture plates were incubated for 18-24 h at 37° C., and optical density at 600 nm (OD600) was measured using a Benchmark Plus™ microplate spectrophotometer (Bio-Rad™). The absorbance control values for the series containing CAMHB and inhibitor were subtracted as background from the corresponding infected wells. The MIC was defined as the lowest concentration of test compound leading to complete inhibition of cell growth in relationship to compound-free control wells as determined by optical density. […] All assays were run in triplicate (Tables 1-6) or duplicate. Experiments were replicated at least twice to verify reproducibility using the above conditions.

[1] = Staphylococcus aureus, ATCC29213, Table 8, tested at least in duplicate, differing values all given, read-out: MIC
[2] = read-out: % inhibition at the highest concentration tested (IC50)
[3] = Staphylococcus aureus, ATCC29213, Tables 1-6 and text, minimum concentration to give >98% inhibition of growth, read-out: MIC
[4] = Tables 1-6, 2 mM ADP, 10 mM PEP, 15 nM PK, read-out: IC50

T1 sequence (Q6GG09 whole entry): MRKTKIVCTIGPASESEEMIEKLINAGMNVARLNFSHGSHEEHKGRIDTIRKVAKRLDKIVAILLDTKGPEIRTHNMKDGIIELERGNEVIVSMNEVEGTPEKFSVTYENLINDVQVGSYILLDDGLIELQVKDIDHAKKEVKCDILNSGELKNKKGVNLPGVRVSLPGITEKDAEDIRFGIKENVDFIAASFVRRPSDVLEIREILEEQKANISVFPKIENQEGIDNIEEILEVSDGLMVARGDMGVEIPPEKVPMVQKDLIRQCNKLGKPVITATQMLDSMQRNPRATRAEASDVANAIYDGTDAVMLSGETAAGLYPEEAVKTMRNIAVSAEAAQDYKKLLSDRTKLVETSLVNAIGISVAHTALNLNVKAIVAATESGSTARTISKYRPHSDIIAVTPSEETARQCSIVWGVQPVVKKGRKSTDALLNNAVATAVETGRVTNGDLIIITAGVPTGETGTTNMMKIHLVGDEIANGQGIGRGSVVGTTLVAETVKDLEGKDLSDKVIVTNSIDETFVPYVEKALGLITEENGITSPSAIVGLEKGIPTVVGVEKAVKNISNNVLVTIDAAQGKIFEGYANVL

Row | Structure (SMILES) | IC50 (MRSA PK) [nM] | MIC (S. aureus ATCC 29213; [1]) [µg/mL] | MIC (S. aureus ATCC 29213; [3]) [µg/mL] | also measured
1 | Brc1ccc2cc(CCc3cn4c(n3)CCCC4)[nH]c2c1 [Compound 126, 2-(2-(6-Bromo-1H-indol-2-yl)ethyl)-5,6,7,8-tetrahydroimidazo[1,2-a]pyridine] | > 100000 | 64 (≈ 186 µM) | – | –
2 | COC(=O)c1c(NCc2ccc(Cl)cc2)[nH]c2cc(Br)ccc12 [Compound 165, Methyl 6-bromo-2-(4-chlorobenzylamino)-1H-indole-3-carboxylate] | > 1000 | 4 (≈ 10.2 µM) | – | –
3 | COc1ccc(/C=C/c2cc3ccc(Br)cc3[nH]2)nc1 [Compound 107, (E)-6-Bromo-2-(2-(5-methoxypyridin-2-yl)vinyl)-1H-indole] | 50 to 100 | > 64 | – | –
4 | Brc1ccc2cc(CSCc3ccccc3)[nH]c2c1 [Compound 149, 2-((Benzylthio)methyl)-6-bromo-1H-indole] | > 1000 | > 64 | – | –
5 | c1ccc2[nH]c(-c3ccc(-c4cc5ccccc5[nH]4)cc3)cc2c1 [Compound 46] | – | – | > 16 | inhibition at 10 µM (MRSA PK; [2]): 52%
6 | Brc1ccc2[nH]c(-c3ccc(-c4cc5cc(Br)ccc5[nH]4)s3)cc2c1 [Compound 43, 2,5-bis(5-Bromo-1H-indol-2-yl)thiophene] | – | – | > 64 | inhibition at 10 µM (MRSA PK; [2]): 50%
7 | Clc1ccc(CCc2nc3ccc(Br)cc3[nH]2)cc1 [Compound 154, 6-bromo-2-(4-chlorophenethyl)-1H-benzo[d]imidazole] | > 1000 | 16 (≈ 47.7 µM) | – | MIC (S. aureus ATCC 29213; Table 8, tested at least in duplicate, differing values all given): 32 µg/mL (≈ 95.3 µM)
8 | O=C(O)c1c(/C=C/c2ccc(Br)cn2)[nH]c2cc(Br)ccc12 [Compound 153, (E)-6-Bromo-2-(2-(5-bromopyridin-2-yl)vinyl)-1H-indole-3-carboxylic acid] | 100 to 1000 | 32 (≈ 75.8 µM) | – | –
9 | Brc1ccc2cc(-c3ccc(-c4cc5ccc(Br)cc5[nH]4)nn3)[nH]c2c1 [Compound 49, 3,6-bis(6-Bromo-1H-indol-2-yl)pyridazine] | – | – | > 32 | inhibition at 10 µM (MRSA PK; [2]): 70%
10 | Brc1ccc2cc(/C=C/c3ccccc3)[nH]c2c1 [Compound 36a, (E)-6-bromo-2-styryl-1H-indole] | 25 | – | > 64 | –
11 | O=C(Nc1ccc(Cl)cc1)c1cc2ccc(Br)cc2[nH]1 [Compound 128, 6-bromo-N-(4-chlorophenyl)-1H-indole-2-carboxamide] | 17 | > 64 | – | –
12 | O=C(Nc1nc2ccc(Br)cc2s1)c1cc2cc(Br)ccc2[nH]1 [Compound 82, 5-Bromo-N-(6-bromobenzo[d]thiazol-2-yl)-1H-indole-2-carboxamide] | 22.5 | – | > 64 | –
13 | O=C1c2ccc(Br)cc2C(=O)N1c1nc2ccc(Br)cc2s1 [Compound 65, 5-bromo-2-(6-bromobenzo[d]thiazol-2-yl)isoindoline-1,3-dione] | – | – | > 64 | inhibition at 10 µM (MRSA PK; [2]): 76%
14 | Brc1ccc2cc(/C=C/c3cc4ccc(Br)cc4[nH]3)[nH]c2c1 [Compound 27b, (E)-1,2-bis(6-bromo-1H-indol-2-yl)ethane] | – | – | > 64 | IC50 (MRSA PK; [4]): 3.9 nM
15 | Brc1ccc2cc(-c3ccc(-c4cc5ccc(Br)cc5[nH]4)cc3)[nH]c2c1 [Compound 33a, 1,4-bis(6-bromo-1H-indol-2-yl)benzene] | – | – | > 64 | inhibition at 1 µM (MRSA PK; [2]): 54%
16 | COc1ccc(NC(=O)c2[nH]c3cc(Br)ccc3c2C(=O)O)cn1 [Compound 136, 6-Bromo-2-((6-methoxypyridin-3-yl)carbamoyl)-1H-indole-3-carboxylic acid] | 100 to 1000 | > 64 | – | –
17 | CC(=O)c1c(CCc2cn3c(n2)CCCC3)[nH]c2cc(Br)ccc12 [Compound 127, 1-(6-Bromo-2-(2-(5,6,7,8-tetrahydroimidazo[1,2-a]pyridin-2-yl)ethyl)-1H-indol-3-yl)ethan-1-one] | > 100000 | 64 (≈ 166 µM) | – | –
18 | O=C(O)c1c(/C=C/c2cc(Cl)cc(Cl)c2)[nH]c2cc(Br)ccc12 [Compound 150, (E)-6-Bromo-2-(3,5-dichlorostyryl)-1H-indole-3-carboxylic acid] | > 1000 | 8 (≈ 19.5 µM) | – | –
19 | Brc1ccc(/C=C/c2cc3ccc(Br)cc3[nH]2)cc1 [Compound 36b, (E)-6-bromo-2-(4-bromostyryl)-1H-indole] | 1 | – | > 64 | –
20 | Brc1ccc2[nH]c(/C=C/c3cc4ccc(Br)cc4[nH]3)cc2c1 [Compound 27c, (E)-6-bromo-2-(2-(5-bromo-1H-indol-2-yl)vinyl)-1H-indole] | – | – | > 64 | IC50 (MRSA PK; [4]): 4.1 nM
21 | Cc1c(/C=C/c2ccc(Cl)cc2)[nH]c2cc(Br)ccc12 [Compound 160, (E)-6-bromo-2-(4-chlorostyryl)-3-methyl-1H-indole] | < 50 | > 64 | – | –
22 | Brc1ccc2cc(-c3ccc(-c4ccn[nH]4)s3)[nH]c2c1 [Compound 81, 2-(5-(1H-Pyrazol-5-yl)thiophen-2-yl)-6-bromo-1H-indole] | 74.5 | – | 0.5 (≈ 1.45 µM) | –
23 | Brc1ccc2cc(/C=C/c3cc(-c4ccccc4)on3)[nH]c2c1 [Compound 105, (E)-3-(2-(6-Bromo-1H-indol-2-yl)vinyl)-5-phenylisoxazole] | > 100000 | > 64 | – | –
24 | Brc1ccc(/C=C/c2cc3ccc(Br)cc3[nH]2)nc1 [Compound 99, (E)-6-Bromo-2-(2-(5-bromopyridin-2-yl)vinyl)-1H-indole] | 50 to 100 | 32 (≈ 84.6 µM) | – | –
25 | Clc1ccc2[nH]c(-c3cc4ccc(Br)cc4[nH]3)nc2c1 [Compound 164, 2-(6-bromo-1H-indol-2-yl)-5-chloro-1H-benzo[d]imidazole] | < 50 | 1 (≈ 2.89 µM) | – | –
26 | Cc1cnc(/C=C/c2cc3ccc(Br)cc3[nH]2)cn1 [Compound 109, (E)-6-Bromo-2-(2-(5-methylpyrazin-2-yl)vinyl)-1H-indole] | > 1000 | > 64 | – | –
27 | Clc1cccc(/C=C/c2cc3ccc(Br)cc3[nH]2)c1 [Compound 96, (E)-6-Bromo-2-(3-chlorostyryl)-1H-indole] | 100 to 1000 | > 64 | – | –
28 | O=C(Nc1nc2ccc(Br)cc2s1)c1ccccc1O [Compound 66] | – | – | > 64 | inhibition at 10 µM (MRSA PK; [2]): 59%
29 | COC(=O)c1c(C(=O)Nc2ccc(Cl)cn2)[nH]c2cc(Br)ccc12 [Compound 137, Methyl 6-bromo-2-((5-chloropyridin-2-yl)carbamoyl)-1H-indole-3-carboxylate] | – | > 64 | – | EC50 (MRSA PK): 13.2 nM
